Data published in the supplement of paper PMC4862054.

Columns and labels:
BT-474 [1] = assay: normalised viability (% of control), CellTiter-Blue; higher = more viable cells (about 100 = DMSO control); details: 10 nM; incubation time: 72 h
Outline: (§1)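 384-well plates were pre-loaded with compound in 5 µl medium before 20 µl of breast cancer cell suspension was seeded. Following 72 h incubation, 2.5 µl CellTiter-Blue reagent was added for 2 h at 37 °C. Fluorescence was read at 560/590 nm and plates were normalised to vehicle (100) and a positive kill control (0), checked by Z'-factor. Normalised viability is reported at a single listed concentration of the series.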

CAL-51 [2] = assay: as above; details: 1 nM; incubation time: 72 h
Outline: as §1

DU-4475 [3] = assay: as above; details: 1 nM; incubation time: 72 h
Outline: as §1

HCC1143 [4] = assay: as above; details: 10 nM; incubation time: 72 h
Outline: as §1

Hs578T [5] = assay: as above; details: 10 nM; incubation time: 72 h
Outline: as §1

MDA-MB-436 [6] = assay: as above; details: 10 nM; incubation time: 72 h
Outline: as §1

MDA-MB-453 [7] = assay: as above; details: 1 nM; incubation time: 72 h
Outline: as §1

SK-BR-3 [8] = assay: as above; details: 10 nM; incubation time: 72 h
Outline: as §1

BT-474 [9] = assay: drug sensitivity score (DSS), CellTiter-Blue viability (DSS (AUC-based score)); higher = stronger viability inhibition; extreme values may be limits of the assay; details: incubation time: 72 h
Experimental: (§2)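 DSRT with the CellTiter-Blue (resazurin reduction) viability readout, fluorescence 560/590 nm, 72 h incubation. Plates were normalised to DMSO and benzethonium chloride controls. DSS is computed from the area under the fitted dose-response curve (5 or 9 concentrations).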

BT-549 = assay: as above; details: incubation time: 72 h
Experimental: as §2

CAL-120 = assay: as above; details: incubation time: 72 h
Experimental: as §2

CAL-148 = assay: as above; details: incubation time: 72 h
Experimental: as §2

CAL-51 [10] = assay: as above; details: incubation time: 72 h
Experimental: as §2

CAL-85-1 = assay: as above; details: incubation time: 72 h
Experimental: as §2

DU-4475 [11] = assay: as above; details: incubation time: 72 h
Experimental: as §2

HCC1143 [12] = assay: as above; details: incubation time: 72 h
Experimental: as §2

HCC1599 = assay: as above; details: incubation time: 72 h
Experimental: as §2

HCC1937 = assay: as above; details: incubation time: 72 h
Experimental: as §2

HDQ-P1 = assay: as above; details: incubation time: 72 h
Experimental: as §2

Hs578T [13] = assay: as above; details: incubation time: 72 h
Experimental: as §2

MDA-MB-231 = assay: as above; details: incubation time: 72 h
Experimental: as §2

MDA-MB-436 [14] = assay: as above; details: incubation time: 72 h
Experimental: as §2

MDA-MB-453 [15] = assay: as above; details: incubation time: 72 h
Experimental: as §2

MDA-MB-468 = assay: as above; details: incubation time: 72 h
Experimental: as §2

MFM-223 = assay: as above; details: incubation time: 72 h
Experimental: as §2

SK-BR-3 [16] = assay: as above; details: incubation time: 72 h
Experimental: as §2

SMILES: CC[C@@H]1C(=O)N(C)c2cnc(Nc3ccc(C(=O)N[C@H]4CC[C@H](N5CCN(CC6CC6)CC5)CC4)cc3OC)nc2N1C(C)C [Volasertib]
- normalised viability (BT-474 [1]): 55.8%
- normalised viability (CAL-51 [2]): 102%
- normalised viability (DU-4475 [3]): 124%
- normalised viability (HCC1143 [4]): 77.4%
- normalised viability (Hs578T [5]): 97.3%
- normalised viability (MDA-MB-436 [6]): 88.6%
- normalised viability (MDA-MB-453 [7]): 104%
- normalised viability (SK-BR-3 [8]): 53.6%
- drug sensitivity score (BT-474 [9]): 8.65
- drug sensitivity score (BT-549): 12.3
- drug sensitivity score (CAL-120): 20.5
- drug sensitivity score (CAL-148): 17.8
- drug sensitivity score (CAL-51 [10]): 17.6
- drug sensitivity score (CAL-85-1): 10.9
- drug sensitivity score (DU-4475 [11]): 14.7
- drug sensitivity score (HCC1143 [12]): 13.4
- drug sensitivity score (HCC1599): 0
- drug sensitivity score (HCC1937): 16.3
- drug sensitivity score (HDQ-P1): 5.17
- drug sensitivity score (Hs578T [13]): 11.3
- drug sensitivity score (MDA-MB-231): 12.3
- drug sensitivity score (MDA-MB-436 [14]): 3.18
- drug sensitivity score (MDA-MB-453 [15]): 19.2
- drug sensitivity score (MDA-MB-468): 11.9
- drug sensitivity score (MFM-223): 16.9
- drug sensitivity score (SK-BR-3 [16]): 19.8
